Measurements taken from US20260294915A1, “COMBINATION THERAPY COMPRISING A MAT2A INHIBITOR AND A TOPOISOMERASE INHIBITOR, A SPLICING INHIBITOR SULFONAMIDE, OR A KIF18 INHIBITOR” (IDEAYA BIOSCIENCES, INC., priority 2023, published 2026).

Assays:
Assay in all cases: 10-day proliferation (CTG), equimolar Compound A + SPLAM (Example 4)
Assay type in all cases: cell-based
Conditions in all cases: 10 days, single agent or 1:1 combo
TCCSUP = tested on: TCCSUP
Experimental: (§1) A 10-day proliferation assay was performed in a panel of 5 MTAP-deficient and 2 wild type non-small cell lung and bladder cancer cell lines. Optimal cell seeding for all cell lines was determined by assessing the growth over a range of seeding densities in a 384-well format to identify conditions that permitted proliferation for 10 days. Cells were then plated at the optimal seeding density and treated with 20-point, two-fold dilution series of Compound A, the splicing inhibitor sulfonamide (SPLAM), or an equimolar combination of Compound A and the SPLAM. Combinations tested included Compound A in combination with four structurally different SPLAMs. Concentrations tested for Compound A and each SPLAM alone or in combination ranged from 0.04 nM to 20,000 nM. A plate of cells was harvested at the time of compound addition to quantify the number of cells at the start of the combination (T0). For cell quantification, the harvested cells were lysed with Promega CellTiter-Glo (CTG) reagent according to the manufacturer's protocol and the chemiluminescent signal was detected on a Synergy Neo plate reader. CTG estimates cell number through detection of cellular ATP levels. Cells were incubated with the drug combinations at 37° C. with 5% CO2 for 10 days. Cells were then lysed with CTG and the chemiluminescent signal was measured.
(§2) CTG values obtained after the 10-day treatment were background subtracted and expressed as a percent of the T0 value. Data were plotted against compound concentration and fit with a four-parameter equation to generate dose response curves for each single agent and the equimolar combination. Growth ICx (gICx) values ranging from gIC30 to gIC100 were interpolated from the fitted curves. Synergistic growth inhibition was assessed by determination of Combination Index (CI) values at these various points across the titration using the mutually non-exclusive equation [Chou, 1983; Chou, 1981] shown below where A equals the gICx value of Compound A, B equals the gICx value of the SPLAM, and A+B or B+A equals the gICx value of the equimolar combination. A Combination Index value less than 1.0 was considered synergistic.

SW900 = tested on: SW900
Experimental: as §1, §2

UMUC5 = tested on: UMUC5
Experimental: as §1, §2

NCI-H520 = tested on: NCI-H520
Experimental: as §1, §2

UMUC11 = tested on: UMUC11
Experimental: as §1, §2

NCI-H838 = tested on: NCI-H838
Experimental: as §1, §2

RT112/84 = tested on: RT112/84
Experimental: as §1, §2

IC90 (SW900; read-out: gIC90): 330 nM | IC50 (SW900; Homo sapiens, SW900, 240 h, read-out: gIC50): 296 nM | IC90 (NCI-H520; read-out: gIC90): 12000 nM | IC50 (NCI-H520; Homo sapiens, NCI-H520, 240 h, read-out: gIC50): 734 nM | IC90 (NCI-H838; read-out: gIC90): 666 nM | IC50 (NCI-H838; Homo sapiens, NCI-H838, 240 h, read-out: gIC50): 388 nM
Structure (SMILES): Cc1ccc(NS(=O)(=O)c2cccc(C#N)c2)c2[nH]cc(C#N)c12 [Compound E7820, 3-cyano-N-(3-cyano-4-methyl-1H-indol-7-yl)benzenesulfonamide]
gIC30 (TCCSUP): 20 µM | gIC40 (TCCSUP): 20 µM | gIC60 (TCCSUP): 20 µM | gIC70 (TCCSUP): 20 µM | gIC100 (TCCSUP): 20 µM | IC80 (TCCSUP; read-out: gIC80): 20000 nM | IC90 (TCCSUP; read-out: gIC90): 20000 nM | IC50 (TCCSUP; Homo sapiens, TCC-SUP, 240 h, read-out: gIC50): 20000 nM | gIC30 (SW900): 284 nM | gIC40 (SW900): 290 nM | gIC60 (SW900): 303 nM | gIC70 (SW900): 309 nM | gIC100 (SW900): 362 nM | IC80 (SW900; read-out: gIC80): 318 nM | IC50 (UMUC5; 240 h, read-out: gIC50): 460 nM | gIC30 (UMUC5): 330 nM | gIC40 (UMUC5): 390 nM | gIC60 (UMUC5): 547 nM | gIC70 (UMUC5): 673 nM | gIC100 (UMUC5): 20 µM | IC80 (UMUC5; read-out: gIC80): 900 nM | IC90 (UMUC5; read-out: gIC90): 1900 nM | gIC30 (NCI-H520): 484 nM | gIC40 (NCI-H520): 596 nM | gIC60 (NCI-H520): 920 nM | gIC70 (NCI-H520): 1214 nM | gIC100 (NCI-H520): 20 µM | IC80 (NCI-H520; read-out: gIC80): 1840 nM | IC50 (UMUC11; 240 h, read-out: gIC50): 452 nM | gIC30 (UMUC11): 361 nM | gIC40 (UMUC11): 404 nM | gIC60 (UMUC11): 511 nM | gIC70 (UMUC11): 589 nM | gIC100 (UMUC11): 20 µM | IC80 (UMUC11; read-out: gIC80): 713 nM | IC90 (UMUC11; read-out: gIC90): 1010 nM | gIC30 (NCI-H838): 328 nM | gIC40 (NCI-H838): 357 nM | gIC60 (NCI-H838): 425 nM | gIC70 (NCI-H838): 472 nM | gIC100 (NCI-H838): 20 µM | IC80 (NCI-H838; read-out: gIC80): 539 nM | gIC30 (RT112/84): 213 nM | gIC40 (RT112/84): 237 nM | gIC60 (RT112/84): 290 nM | gIC70 (RT112/84): 326 nM | gIC100 (RT112/84): 10.429 µM | IC80 (RT112/84; read-out: gIC80): 375 nM | IC90 (RT112/84; read-out: gIC90): 466 nM | IC50 (RT112/84; Homo sapiens, RT112/84, 240 h, read-out: gIC50): 262 nM
